Laboratory results reported in publication PMC9648375, “Identification of the first-in-class dual inhibitors of human DNA topoisomerase IIα and indoleamine-2,3-dioxygenase 1 (IDO 1) with strong anticancer properties” (Journal of Enzyme Inhibition and Medicinal Chemistry, 2022).
Converted amounts (≈) assume the structure as drawn. Where two headings read alike, the source gives them in different places.

Legend:
MTT assay = format: cell-based; details: human, HEK-293 cells (normal reference cell line), HEK-293 (normal cells), read-out: IC50, cytotoxicity
Method: (§1) Therefore, the whole set of compounds were tested by using MTT assay in order to check their overall cytotoxic effect. The growth of cells was monitored after 24 and 48 h of incubation with the increased concentrations (1–100 µg/ml) of the thiosemicarbazide derivatives. […] This confirms that the compounds tested combine different mechanisms of anticancer activity, and DNA topoisomerase II inhibition is only one of them.
(§2) Cytotoxicity of the synthesised compounds were examined against a panel of the cancer cell lines, MCF-7 (estrogen-dependent human breast cancer cells), MDA-MB-231 (oestrogen-independent human breast cancer cells), SCC- 25 (squamous cell carcinoma of the tongue), FaDu (squamous cell carcinoma of the pharynx), A- 549 (human lung carcinoma), AGS (human gastric adenocarcinoma), LS-180, HT-29 (colon cancer cell lines), T98G (glioblastoma cells), A375 (melanoma cells). Human embryonic kidney (HEK-293) cells and human normal skin fibroblasts (CRL-2072) were used as reference cell lines. The investigated cell lines were obtained from American Type Culture Collection (ATCC; Manassas, VA, USA). A375, MCF-7, MDA-MB-231, T98G cells were cultured in Dulbecco’s Modified Eagle’s Medium (DMEM) (Sigma Aldrich, St. Louis, MO, USA) supplemented with 10% heat inactivated foetal bovine serum (FBS), penicillin (100 U/mL), and streptomycin (100 μg/mL). SCC-25 cells were cultured in 1:1 mixture of Dulbecco’s modified Eagle’s medium and Ham’s F12 Medium (Sigma Aldrich, St. Louis, MO, USA) supplemented with 400 ng/ml hydrocortisone, 10% FBS, penicillin (100 U/mL), and streptomycin (100 μg/mL). A549 and AGS cells were maintained in F-12K Medium (Sigma Aldrich, St. Louis, MO, USA). LS-180 and FaDu cells were cultured in Eagle’s Minimum Essential Medium. HT-29 cells were maintained in McCoy’s 5 A Medium (Sigma Aldrich, St. Louis, MO, USA) supplemented with 10%FBS, penicillin (100 U/mL), and streptomycin (100 μg/mL). All the cells were maintained at 37 °C in a humidified atmosphere of 5% CO2.
(§3) The synthesised compounds were dissolved in DMSO in order to obtain stock solutions. At the day of the experiment, the suspension of cells (1 × 10^5 cells/mL) in the respective medium was applied to a 96-well plate at 100 μL per well. […] The control cells were cultured only with a medium containing 2% FBS. Cytotoxicity of DMSO was also checked at concentrations present in respective dilutions of stock solution. After 24 h (or 48 h) of incubation, 15 μL of MTT working solution (5 mg/mL in PBS) was added to each well. The plate was incubated for 3 h. Subsequently, 100 μL of 10% SDS solution was added to each well. Cells were incubated overnight at 37 °C to dissolve the precipitated formazan crystals. The concentration of the dissolved formazan was evaluated by measuring the absorbance at λ = 570 nm, using a microplate reader (Epoch, BioTek Instruments, Inc., Winooski, VT, USA). At least two independent experiments were performed in triplicates. The results of the MTT assay were expressed as mean ± SD. […] IC50 values of the investigated derivatives and standards were calculated using the IC50 calculator.[23]

A375 (melanoma cells) = experiment: MTT assay; format: cell-based; details: Homo sapiens, read-out: IC50, cytotoxicity
Method: as §1, §2, §3

[1] = system: A549 (human lung carcinoma); experiment: MTT assay; format: cell-based; details: read-out: IC50, cytotoxicity
Method: as §1, §2, §3

[2] = system: AGS (human gastric adenocarcinoma); experiment: MTT assay; format: cell-based; details: read-out: IC50, cytotoxicity
Method: as §1, §2, §3

[3] = system: FaDu (squamous cell carcinoma of the pharynx); experiment: MTT assay; format: cell-based; details: Homo sapiens, read-out: IC50, cytotoxicity
Method: as §1, §2, §3

[4] = system: HT-29 (colon cancer cell line); experiment: MTT assay; format: cell-based; details: Homo sapiens, HT-29, MTT, read-out: IC50, cytotoxicity
Method: as §1, §2, §3

[5] = system: LS180 (colon cancer cell line); experiment: MTT assay; format: cell-based; details: Homo sapiens, read-out: IC50, cytotoxicity
Method: as §1, §2, §3

[6] = system: MCF-7 (estrogen-dependent human breast cancer cells); experiment: MTT assay; format: cell-based; details: MCF7, MCF-7, MTT, read-out: IC50, cytotoxicity
Method: as §1, §2, §3

[7] = system: MDA-MB-231 (estrogen-independent human breast cancer cells); experiment: MTT assay; format: cell-based; details: MDA-MB-231, MTT, read-out: IC50, cytotoxicity
Method: as §1, §2, §3

[8] = system: SCC-25 (squamous cell carcinoma of the tongue); experiment: MTT assay; format: cell-based; details: Homo sapiens, SCC-25, MTT, read-out: IC50, cytotoxicity
Method: as §1, §2, §3

[9] = system: T98G (glioblastoma cells); experiment: MTT assay; format: cell-based; details: Homo sapiens, read-out: IC50, cytotoxicity
Method: as §1, §2, §3

SMILES | IC50 at 24 h (MTT assay) [µg/mL] | IC50 at 48 h (MTT assay) [µg/mL] | IC50 (A375 (melanoma cells); A-375, 24h) [µg/mL] | IC50 (A375 (melanoma cells); A-375, 48 h) [µg/mL] | IC50 ([1]; 24h) [µg/mL] | IC50 ([1]; 48h) [µg/mL] | IC50 ([2]; 24h) [µg/mL] | IC50 ([2]; 48 h) [µg/mL] | IC50 ([3]; 24h) [µg/mL] | IC50 ([3]; 48 h) [µg/mL] | IC50 ([4]; 24h) [µg/mL] | IC50 ([4]; 48 h) [µg/mL] | IC50 ([5]; 24h) [µg/mL] | IC50 ([5]; 48 h) [µg/mL] | IC50 ([6]; 24h) [µg/mL] | IC50 ([6]; 48h) [µg/mL] | IC50 ([7]; 24h) [µg/mL] | IC50 ([7]; 48h) [µg/mL] | IC50 ([8]; 24h) [µg/mL] | IC50 ([8]; 48 h) [µg/mL] | also measured
O=C(NNC(=S)Nc1c(F)cccc1F)c1ccccc1[N+](=O)[O-] [Compound 4, 4-(2,6-Difluorophenyl)-1-(2-nitrobenzoyl)thiosemicarbazide] | > 100 | > 100 | > 100 | 14.8 (≈ 42 µM) | > 100 | > 100 | > 100 | 63.9 (≈ 181 µM) | > 100 | 39.2 (≈ 111 µM) | 25 (≈ 71 µM) | > 100 | > 100 | 55.6 (≈ 158 µM) | > 100 | 19.4 (≈ 55.1 µM) | > 100 | 32.5 (≈ 92.2 µM) | > 100 | 40.9 (≈ 116 µM) | IC50 ([9]; 24h): 55.5 µg/mL (≈ 157 µM); IC50 ([9]; 48h): 7.26 µg/mL (≈ 20.6 µM); melting point: 278 to 280 °C
Cc1cccc(C(=O)NC(=S)NNC(=O)c2ccccc2[N+](=O)[O-])c1 [Compound 5, 4-(3-Methylobenzoyl)-1-(2-nitrobenzoyl)thiosemicarbazide] | 78.1 (≈ 218 µM) | 24.6 (≈ 68.6 µM) | 89.3 (≈ 249 µM) | 38.5 (≈ 107 µM) | > 100 | > 100 | > 100 | 63.9 (≈ 178 µM) | > 100 | 31.7 (≈ 88.4 µM) | 45.2 (≈ 126 µM) | 12.3 (≈ 34.3 µM) | > 100 | 19.8 (≈ 55.4 µM) | > 100 | 28.1 (≈ 78.5 µM) | > 100 | 56.3 (≈ 157 µM) | > 100 | 17.3 (≈ 48.3 µM) | IC50 ([9]; 24h): > 100 µg/mL; IC50 ([9]; 48h): 30.1 µg/mL (≈ 83.9 µM); melting point: 194 to 195 °C
O=C(NC(=S)NNC(=O)c1ccccc1[N+](=O)[O-])c1ccc([N+](=O)[O-])cc1 [Compound 6, 1-(2-Nitrobenzoyl)-4-(4-nitrobenzoyl)thiosemicarbazide] | > 100 | 60.1 (≈ 154 µM) | > 100 | 7.98 (≈ 20.5 µM) | 20.8 (≈ 53.3 µM) | 23.4 (≈ 60.2 µM) | 23.5 (≈ 60.3 µM) | 29.8 (≈ 76.5 µM) | 12.9 (≈ 33.1 µM) | 14.8 (≈ 37.9 µM) | 22.8 (≈ 58.5 µM) | 6.78 (≈ 17.4 µM) | > 100 | 10.4 (≈ 26.7 µM) | > 100 | 15.9 (≈ 40.9 µM) | > 100 | 16.8 (≈ 43.3 µM) | 26 (≈ 66.7 µM) | 9.78 (≈ 25.1 µM) | IC50 ([9]; 24h): 8.41 µg/mL (≈ 21.6 µM); IC50 ([9]; 48h): 9.78 µg/mL (≈ 25.1 µM)
O=C(NNC(=S)NC(=O)c1ccccc1Cl)c1ccc(O)c([N+](=O)[O-])c1 [Compound 7, 4-(2-Chlorobenzoyl)-1-(4-hydroxy-3-nitrobenzoyl)thiosemicarbazide] | 67.2 (≈ 170 µM) | 32.7 (≈ 82.8 µM) | > 100 | 13.9 (≈ 35.2 µM) | > 100 | > 100 | > 100 | 18.8 (≈ 47.5 µM) | 33.5 (≈ 84.9 µM) | 22.5 (≈ 56.9 µM) | 47.4 (≈ 120 µM) | 7.18 (≈ 18.2 µM) | > 100 | 24.7 (≈ 62.5 µM) | > 100 | 24.8 (≈ 62.9 µM) | > 100 | 69.4 (≈ 176 µM) | 42.4 (≈ 107 µM) | 24.3 (≈ 61.6 µM) | IC50 ([9]; 24h): 11.4 µg/mL (≈ 29 µM); IC50 ([9]; 48h): 10.7 µg/mL (≈ 27 µM)
